Where a name gives a salt, the structure may show the parent alone.
Assays:
[1] = tested on: SK-MEL-28 tumor cells; test: Cell growth inhibition assay (CellTiter-Glo), SK-MEL-28; type: cell-based, Human; settings: Homo sapiens, SK-MEL-28, 72 h; 3 days incubation
Outline: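 Readout was CellTiter-Glo luminescence (total ATP, surrogate for cell number) after 3-day exposure at 37° C, 5% CO2 to 1:3 serial compound dilutions in 0.2% final DMSO. Seeding was 500 cells/well; IC50 derived by 4-parameter fit relative to vehicle-treated wells.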

[2] = target: B-Raf (Homo sapiens, UniProt P15056); test: B-Raf Accelerated MEK ATPase assay (BRAMA), Method A or B; type: biochemical
B-Raf, sequence (P15056 whole entry): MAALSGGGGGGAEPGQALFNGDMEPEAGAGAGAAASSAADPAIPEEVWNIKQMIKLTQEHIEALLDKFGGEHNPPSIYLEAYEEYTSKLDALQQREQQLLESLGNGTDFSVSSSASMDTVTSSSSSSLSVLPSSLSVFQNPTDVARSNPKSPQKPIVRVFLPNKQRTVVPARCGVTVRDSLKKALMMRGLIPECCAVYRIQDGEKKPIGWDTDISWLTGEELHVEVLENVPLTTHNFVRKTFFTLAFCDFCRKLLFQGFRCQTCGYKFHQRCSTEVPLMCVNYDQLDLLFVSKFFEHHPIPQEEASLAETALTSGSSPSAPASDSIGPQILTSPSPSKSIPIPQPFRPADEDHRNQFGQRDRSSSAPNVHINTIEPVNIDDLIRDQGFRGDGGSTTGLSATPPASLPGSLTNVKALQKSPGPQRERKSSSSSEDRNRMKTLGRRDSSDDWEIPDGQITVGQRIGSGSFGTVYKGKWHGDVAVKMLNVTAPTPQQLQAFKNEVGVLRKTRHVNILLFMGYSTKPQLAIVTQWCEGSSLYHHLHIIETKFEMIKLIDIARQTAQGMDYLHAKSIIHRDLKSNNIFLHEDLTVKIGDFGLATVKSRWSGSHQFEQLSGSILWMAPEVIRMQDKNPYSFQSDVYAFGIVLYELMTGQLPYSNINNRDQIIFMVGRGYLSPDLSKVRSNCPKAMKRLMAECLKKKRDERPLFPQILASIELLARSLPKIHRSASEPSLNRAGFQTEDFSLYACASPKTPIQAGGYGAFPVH
Outline: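 ADP production, initiated by catalytic activated Raf with unphosphorylated MEK, is followed by NADH oxidation through a PK/LDH coupled system. Method B differs from the kinetic Method A by a single end-point read and 150 nM final MEK.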

[3] = tested on: A375P F11s tumor cells; test: Cell growth inhibition assay (CellTiter-Glo), A375P F11s; type: cell-based, Human; settings: for IC50: Homo sapiens
Experimental: Human breast tumor cells (BT474) were cultured in RPMI (Mediatech […]), containing 10% FBS (JRH Biosciences 12176) and 1% penicillin-streptomycin (Invitrogen 15140). Human head and neck tumor cells (HN5) were cultured in high glucose DMEM (Mediatech 50-013-PB) containing 10% FBS and 1% penicillin-streptomycin. Human colon tumor cells (Colo205) were cultured in RPMI (Mediatech 50-020-PB) containing 10% FBS and 1% penicillin-streptomycin. Human melanoma cancer cells (SK-MEL-28) were cultured in EMEM with nonessential amino acids (Mediatech 50-011-PB) containing 10% FBS, 1% sodium pyruvate (JT Baker 3354-04), and 1% penicillin-streptomycin. Human melanoma cancer cells (A375P F11s) were cultured in RPMI (Mediatech 50-020-PB) containing 10% FBS, 1% sodium pyruvate, and 1% penicillin-streptomycin. Human colon cancer cells (HT-29) were cultured in high glucose DMEM (Mediatech 50-013-PB) containing 10% FBS and 1% penicillin-streptomycin. Human melanoma cancer cells (SK-MEL-3) were cultured in McCoy's 5A (50-025-PB) containing 15% FBS, and 1% penicillin-streptomycin. All cell lines were maintained at 37° C. in a humidified 5% CO2, 95% air incubator. Cells were harvested using trypsin/EDTA (Invitrogen 25200), counted using a haemocytometer, and plated. For 96-well assays (using white full-area NUNC plates cat. #136102), cells were plated in 105 μL at the following densities (cells/well): HNS, 500; Colo 205, 500; SK-MEL-28, 500; A375P F11s, 500; HT-29, 500; SK-MEL-3, 500; and BT474, 3000. For 384-well assays (white full-area NUNC plates, cat. #781080), cells were plated in 48 μL at the following densities (cells/well): HNS, 500; Colo205, 500; SK-MEL-28, 500; A375P F11s, 500; HT-29, 500; SK-MEL-3, 500; and BT474, 2000.
The next day, compounds were diluted as follow: For 96-well assays, 13.5 μL of compound in DMSO were diluted using nine (9) serial 1:3 dilutions of 4.5 μL in 9 of DMSO. Medium (270 μL/well of RPMI with 10% FBS and 1% penicillin-streptomycin) was added to the plates. Aliquots (7 μL) were added to cells in the final assay giving a final DMSO concentration of 0.2%. For 384-well assays, 15 μL of compound in DMSO were diluted using nine (9) serial 1:3 dilutions of 5 μL in 10 μL of DMSO, followed by a further dilution of 5 μL of compound with 95 μL of medium, of which 2 μL were added to cells in the final assay giving a final DMSO concentration of 0.2%. Cells were incubated at 37° C., 5% CO2 for 3 days.
Total ATP was measured (as a surrogate estimate of cell number) using CellTiter-Glo® reagent (Promega G7571). Briefly, plates were removed from the incubator and allowed to equilibrate to room temperature for 30 minutes. CellTiter-Glo® (25 μL or 55 μL for 384-well or 96-well assays, respectively) reagent was added to each well and plates were shaken on an orbital plate shaker for 2 minutes. Plates were incubated without shaking for a further 30 minutes and read on an LJL Analyst GT reader in luminometer mode with an integration time of 0.5 seconds per well. Percent inhibition of cell growth was calculated relative to DMSO vehicle-treated control wells. Concentration of compound required to give 50% inhibition of vehicle-treated control cell growth (IC50) was interpolated using a 4-parameter fit for determining IC50 using the following equation: Y=A +((B−A)/(1+((C/X)̂D))) where […].

[4] = Method B: final MEK 150 nM, single end point read

Row | SMILES | IC50 [1] [µM] | IC50 [2, 4] [µM] | IC50 [3] [µM] | IC50 ([2]; Method A) [µM] | Activity in A375P F11s Tumor Cells [3]
1 | CC(=O)N1CCN(c2ccc(Nc3nccc(-c4sc(C(C)C)nc4-c4cccc(NS(=O)(=O)c5cccc(F)c5)c4)n3)cn2)CC1 [Example 11, N-{3-[5-(2-{[6-(4-Acetyl-1-piperazinyl)-3-pyridinyl]amino}-4-pyrimidinyl)-2-(1-methylethyl)-1,3-thiazol-4-yl]phenyl}-3-fluorobenzenesulfonamide] | < 0.1 | < 0.1 | < 0.1 | – | –
2 | CCNc1nc(-c2cccc(NS(=O)(=O)c3ccccc3)c2)c(-c2ccnc(Nc3ccc(OCCN4CCCC4)c(F)c3)n2)s1 [Example 1, N-(3-(2-(Ethylamino)-5-{2-[(3-fluoro-4-[[2-(1-pyrrolidinyl)ethyl]oxy}phenyl)amino]-4-pyrimidinyl}-1,3-thiazol-4-yl)phenyl]benzenesulfonamide] | 0.1 to 1 | – | – | 0.1 to 1 | ++ (activity of between 100 nM and 1 μM in A375P F11s tumor cells)
3 | CC(C)c1nc(-c2cccc(NS(=O)(=O)c3c(F)cccc3F)c2)c(-c2ccnc(Nc3ccc(N4CCOCC4)nc3)n2)s1 [Example 17, 2,6-Difluoro-N-{3-[2-(1-methylethyl)-5-(2-{[6-(4-morpholinyl)-3-pyridinyl]amino}-4-pyrimidinyl)-1,3-thiazol-4-yl]phenyl}benzenesulfonamide] | < 0.1 | < 0.1 | < 0.1 | – | –
4 | CN1CCC(c2nc(-c3ccc(F)c(NS(=O)(=O)c4c(F)cccc4F)c3)c(-c3ccnc(Nc4ccc(N5CCOCC5)nc4)n3)s2)CC1 [Example 106] | 0.1 to 1 | < 0.1 | < 0.1 | – | –
5 | COc1cc(N2CCN(CCS(C)(=O)=O)CC2)c(C)cc1Nc1nccc(-c2sc(C(C)C)nc2-c2cccc(NS(=O)(=O)c3c(F)cccc3F)c2)n1 [Example 19] | 0.1 to 1 | < 0.1 | 0.1 to 1 | – | –
6 | CS(=O)(=O)c1cccc(Nc2nccc(-c3sc(N4CCOCC4)nc3-c3cccc(NS(=O)(=O)c4c(F)cccc4F)c3F)n2)c1 [Example 130] | < 0.1 | < 0.1 | < 0.1 | – | –
7 | CCOc1ccc(Nc2nccc(-c3sc(N4CCCC4)nc3-c3cccc(NS(=O)(=O)c4c(F)cccc4F)c3)n2)cc1N1CCN(CCS(C)(=O)=O)CC1 [Example 109] | < 0.1 | < 0.1 | < 0.1 | – | –
8 | CC(C)c1nc(-c2cccc(NS(=O)(=O)c3cccnc3)c2)c(-c2ccnc(Nc3ccc(N4CCOCC4)nc3)n2)s1 [Example 52] | < 0.1 | < 0.1 | < 0.1 | – | –
9 | Cc1cc(Nc2nccc(-c3sc(C(C)C)nc3-c3ccc(F)c(NS(=O)(=O)c4c(F)cccc4F)c3)n2)ccn1 [Example 116] | < 0.1 | < 0.1 | 0.1 to 1 | – | –
10 | COCCN1CCN(c2ccc(Nc3nccc(-c4sc(C(C)C)nc4-c4cccc(NS(=O)(=O)c5ccccc5)c4)n3)cn2)CC1 [Example 6, N-[3-(2-(1-Methylethyl)-5-{2-[(6-{4-[2-(methyloxy)ethyl]-1-piperazinyl}-3-pyridinyl)amino]-4-pyrimidinyl}-1,3-thiazol-4-yl)phenyl]benzenesulfonamide] | < 0.1 | – | < 0.1 | < 0.1 | –
11 | Cc1cc(N2CCN(CCS(C)(=O)=O)CC2)ncc1Nc1nccc(-c2sc(C(C)C)nc2-c2cccc(NS(=O)(=O)c3c(F)cccc3F)c2)n1 [Example 131] | < 0.1 | < 0.1 | < 0.1 | – | –
12 | CC(C)c1nc(-c2cccc(NS(=O)(=O)c3c(F)cccc3F)n2)c(-c2ccnc(Nc3ccc(N4CCOCC4)nc3)n2)s1 [Example 44] | < 0.1 | < 0.1 | 0.1 to 1 | – | –
13 | CC(C)c1nc(-c2cccc(NS(=O)(=O)c3cccs3)c2)c(-c2ccnc(Nc3ccc(N4CCOCC4)nc3)n2)s1 [Example 51] | < 0.1 | < 0.1 | < 0.1 | – | –
14 | CN1CCN(c2nc(-c3ccc(F)c(NS(=O)(=O)c4c(F)cccc4F)c3)c(-c3ccnc(Nc4ccc(N5CCOCC5)nc4)n3)s2)CC1 [Example 126] | < 0.1 | < 0.1 | 0.1 to 1 | – | –
15 | CC(C)c1nc(-c2ccc(F)c(NS(=O)(=O)c3c(F)cccc3F)c2)c(-c2ccnc(Nc3ccncc3)n2)s1 [Example 102] | 0.1 to 1 | < 0.1 | 0.1 to 1 | – | –
16 | COc1ccc(Nc2nccc(-c3sc(C(C)C)nc3-c3cccc(NS(=O)(=O)c4ccccc4)c3)n2)cc1N1CCN(CCC#N)CC1 [Example 9, N-{3-[5-(2-{[3-[4-(2-Cyanoethyl)-1-piperazinyl]-4-(methyloxy)phenyl]amino}-4-pyrimidinyl)-2-(1-methylethyl)-1,3-thiazol-4-yl]phenyl}benzenesulfonamide] | < 0.1 | < 0.1 | < 0.1 | – | –
17 | O=S1(=O)Cc2ccc(Nc3nccc(-c4sc(N5CCOCC5)nc4-c4cccc(NS(=O)(=O)c5c(F)cccc5F)c4F)n3)cc2C1 [Example 155] | < 0.1 | < 0.1 | < 0.1 | – | –
18 | COc1ccc(Nc2nccc(-c3sc(C(C)C)nc3-c3cccc(NS(=O)(=O)c4c(F)cccc4F)c3)n2)cc1N(C)C [Example 18, N-{3-[5-(2-{[3-(Dimethylamino)-4-(methyloxy)phenyl]amino}-4-pyrimidinyl)-2-(1-methylethyl)-1,3-thiazol-4-yl]phenyl}-2,6-difluorobenzenesulfonamide trifluoroacetate] | < 0.1 | < 0.1 | < 0.1 | – | –
19 | CC(=O)N1CCN(c2ccc(Nc3nccc(-c4oc(C(C)C)nc4-c4cccc(NS(=O)(=O)c5c(F)cccc5F)c4)n3)cn2)CC1 [Example 56] | < 0.1 | < 0.1 | 0.1 to 1 | – | –
20 | CC(C)c1nc(-c2ccc(F)c(NS(=O)(=O)c3c(F)cccc3F)c2)c(-c2ccnc(Nc3ccc(N4CCC(C#N)CC4)nc3)n2)s1 [Example 24, N-{5-[5-(2-{[6-(4-Cyano-1-piperidinyl)-3-pyridinyl]amino}-4-pyrimidinyl)-2-(1-methylethyl)-1,3-thiazol-4-yl]-2-fluorophenyl}-2,6-difluorobenzenesulfonamide] | < 0.1 | < 0.1 | < 0.1 | – | –
21 | CC(=O)N1CCN(c2ccc(Nc3nccc(-c4sc(C(C)C)nc4-c4cccc(NS(=O)(=O)C5CCCCC5)c4)n3)cn2)CC1 [Example 39] | 0.1 to 1 | < 0.1 | 0.1 to 1 | – | –
22 | O=S(=O)(Nc1cc(-c2nc(N3CCCC3)sc2-c2ccnc(Nc3ccc(N4CCOCC4)nc3)n2)ccc1F)c1c(F)cccc1F [Example 26, 2,6-Difluoro-N-{2-fluoro-5-[5-(2-{(6-(4-morpholinyl)-3-pyridinyl]amino}-4-pyrimidinyl)-2-(1-pyrrolidinyl)-1,3-thiazol-4-yl]phenyl}benzenesulfonamide] | < 0.1 | < 0.1 | < 0.1 | – | –
23 | CC(C)c1nc(-c2cccc(NS(=O)(=O)c3c(F)cccc3F)c2)c(-c2ccnc(Nc3ccc(N4CCOCC4)c(F)c3)n2)o1 [Example 57] | < 0.1 | < 0.1 | 0.1 to 1 | – | –
24 | CC(C)c1nc(-c2ccc(F)c(NS(=O)(=O)c3c(F)cccc3F)c2)c(-c2ccnc(Nc3ccc(N4CCN(CCF)CC4)c(F)c3)n2)s1 [Example 25] | 0.1 to 1 | < 0.1 | 0.1 to 1 | – | –
